# Molecular target: T1, CETP (Homo sapiens, UniProt P11597)
# T1 construct: tissue New Drug Development Research Center, Inc; host or cells: human EDTA plasma from healthy men
# T1 sequence (P11597 18-493): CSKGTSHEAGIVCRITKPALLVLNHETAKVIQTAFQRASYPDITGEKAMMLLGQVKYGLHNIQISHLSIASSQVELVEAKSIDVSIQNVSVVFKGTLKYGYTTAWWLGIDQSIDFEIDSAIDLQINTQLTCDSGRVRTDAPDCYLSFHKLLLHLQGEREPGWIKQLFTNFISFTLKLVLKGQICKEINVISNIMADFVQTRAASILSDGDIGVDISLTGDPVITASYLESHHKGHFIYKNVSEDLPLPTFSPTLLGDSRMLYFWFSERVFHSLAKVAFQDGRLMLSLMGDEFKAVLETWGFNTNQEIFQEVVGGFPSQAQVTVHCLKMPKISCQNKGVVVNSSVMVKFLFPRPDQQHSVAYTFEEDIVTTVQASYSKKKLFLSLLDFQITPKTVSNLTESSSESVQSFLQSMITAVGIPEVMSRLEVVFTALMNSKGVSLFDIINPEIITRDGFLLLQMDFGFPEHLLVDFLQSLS
# Assay: In vitro CETP activity assay in human plasma
# Assay type: biochemical
# Conditions: CETP inhibition; Table 1 does not name the assay, it follows the human plasma assay; read-out: IC50 (nM), Inhibitory Activity of Compounds
# Procedure: The cDNA of human pro-apoAI (NCBI accession number: NM_000039) is cloned from human liver Quick-Clone™ cDNA (Clontech, CA) and inserted to a pET28a vector (Novagen, Germany) for bacterial expression. Expressed protein as a fusion protein with 6×His-tag at N-terminus in BL-21 Gold (DE3) (Strategene, CA) is purified using HiTrap Chelating (GE Healthcare, CT).
# Pro-apoAI containing microemulsion as a donor particle is prepared following previous reports (J. Biol. Chem., 280:14918-22). Glyceryl trioleate (62.5 ng, Sigma, Mo.), 3-sn-phosphatidylcholine (583 ng, Wako Pure Chemical Industries, Japan), and cholesteryl BODIPY® FL C12 (250 ng, Invitrogen, CA) are dissolved in 1 mL of chloroform. The solution is evaporated, then residual solvent is removed in vacuum for more than 1 hr. The dried lipid mixture is dissolved in 500 μL of the assay buffer (50 mM Tris-HCl (pH7.4) containing 150 mM NaCl and 2 mM EDTA) and sonicated at 50° C. with a microtip (MICROSON™ ULTRASONIC CELL DISRUPTOR, Misonix, Farmingdale, N.Y.) at output power 006 for 2 min. After sonication, the solution is cooled to 40° C., added to 100 μg of human pro-apoAI, and sonicated at output power 004 for 5 min at 40° C. The solution, BODIPY-CE microemulsion as a donor molecule is stored at 4° C. after filtration through a 0.45 μm PVDF filter.
# Human EDTA plasma samples from healthy men are purchased from New Drug Development Research Center, Inc. Donor solution is prepared by a dilution of donor microemulsion with assay buffer. Human plasma (50 μL), assay buffer (35 μL) and test compound dissolved in dimethylsulfoxide (1 μL) are added to each well of 96 well half area black flat bottom plate. The reaction is started by the addition of donor solution (14 μL) into each well. Fluorescence intensities are measured every 30 min at 37° C. with excitation wave length of 485 nm and emission wavelength of 535 nm. The CETP activity (FI/min) is defined as the changes of fluorescence intensity from 30 to 90 min.
row,IC50 [nM],Compound
1,68,"CC[C@@H]1C[C@H](N(Cc2cc(C(F)(F)F)cc(C(F)(F)F)c2)c2ncc(-c3cnn(C)c3)cn2)C[C@H](CC)N1C(=O)OCCCCC(N)=O [Example 4, cis-4-{[3,5-bis(trifluoromethyl)benzyl]-[5-(1-methyl-1H-pyrazol-4-yl)-pyrimidin-2-yl]-amino}-2,6-diethyl-piperidine-1-carboxylic acid 4-carbamoyl-butyl ester]"
2,91,CC[C@@H]1C[C@H](N(Cc2cc(Cl)cc(Cl)c2)c2ncc(-c3cnn(C)c3)cn2)C[C@H](CC)N1C(=O)O[C@H]1CC[C@H](C(=O)O)CC1 [Example 1-20]
3,86,CC[C@@H]1C[C@H](N(Cc2cc(C(F)(F)F)cc(C(F)(F)F)c2)c2ncc(-c3cnn(C)c3)cn2)C[C@H](CC)N1C(=O)O[C@H]1C[C@H](C(=O)O)C1 [Example 1-17]
4,135,CC[C@@H]1C[C@H](N(Cc2cc(C(F)(F)F)cc(C(F)(F)F)c2)c2ncc(-c3cnn(C)c3)cn2)C[C@H](CC)N1C(=O)OCCCCC(=O)O [Example 1-5]
5,63,CC[C@@H]1C[C@H](N(Cc2cc(C(F)(F)F)cc(C(F)(F)F)c2)c2ncc(-c3cnn(C)c3)cn2)C[C@H](CC)N1C(=O)OCC(C)(C)CCC(=O)O [Example 1-11]
6,98,C[C@@H]1C[C@H](N(Cc2cc(C(F)(F)F)cc(C(F)(F)F)c2)c2ncc(-c3cnn(C)c3)cn2)C[C@H](C)N1C(=O)O[C@H]1CC[C@H](C(=O)O)CC1 [Example 1-19]
7,69,CC[C@@H]1C[C@H](N(Cc2cc(C(F)(F)F)cc(C(F)(F)F)c2)c2ncc(-c3cnn(C)c3)cn2)C[C@H](CC)N1C(=O)O[C@H]1CC[C@H](C(=O)O)CC1 [Example 1-8]
8,142,CC[C@@H]1C[C@H](N(Cc2cc(C(F)(F)F)cc(C(F)(F)F)c2)c2ncc(-c3cnn(C)c3)cn2)C[C@H](CC)N1C(=O)[C@H]1CC[C@H](CC(=O)O)CC1 [Example 1-2]
9,99,CC[C@@H]1C[C@H](N(Cc2cc(F)cc(C(F)(F)F)c2)c2ncc(-c3cnn(C)c3)cn2)C[C@H](CC)N1C(=O)O[C@H]1CC[C@H](C(=O)O)CC1 [Example 1-22]
10,152,CC[C@@H]1C[C@H](N(Cc2cc(C(F)(F)F)cc(C(F)(F)F)c2)c2ncc(-c3cnn(C)c3)cn2)C[C@H](CC)N1C(=O)O[C@H]1C[C@H](C(C)(C)C(=O)O)C1 [Example 1-27]
